Data reported in US9668962B2, “Compositions and related methods for oral wellness” (NOWSystem, Inc., priority 2012, dated 2017).

Experiments:
F. nucleatum [1] = assay: zone of inhibition on blood agar, drop technique and line method (Example 3); assay type: cell-based, Fusobacterium nucleatum; settings: control spot, dilution not given; after 5 days of incubation
Protocol: (§1) Experimental Design: Blood agar (for the 3 anaerobic bacteria, 3 facultative bacteria and 1 aerobic yeast; Fisher Scientific) plates were individually swabbed with fresh 24 h broth cultures of C. rectus, Aggregatibacter actinomycetemcomitans (A.a), C. albicans, P. gingivalis, P. intermedia, F. nucleatum and S. mutans to provide a confluent lawn of microbial growth. Five minutes after swabbing the plates (to allow the inoculum to absorb into the agar), the test and control specimens (see below) were aseptically pipetted (5 ul) onto designated places on the plates and allowed to adsorb (or adhere, in the case of the undiluted sera) into the agar. Assays were conducted in duplicate and undiluted and 1:5 and 1:10 dilutions of the solutions and sterile saline (negative control) and chlorhexidine (CHX) were used. […] The diameter of each zone was measured in mm. The zones of inhibition of each dilution sample were compared to the zones of control saline without antimicrobial components. If the zones of the solutions were the same size (or smaller) than the inhibition zones from the control saline than there was judged no inhibition of antimicrobial activity by the antimicrobial solutions. Conversely, if the zones of the solutions were larger than the inhibition zones from the control saline than there was judged significant antimicrobial activity by the solutions. […]

[2] = tested on: Aggregatibacter actinomycetemcomitans (A.a); assay: as above; assay type: cell-based; settings: control spot, dilution not given; after 5 days of incubation
Protocol: as §1

F. nucleatum [3] = assay: zone of inhibition on blood agar, drop technique and line method (Example 2); assay type: cell-based, Fusobacterium nucleatum; settings: control, 3 ul of 20%; after 3 days of incubation
Protocol: (§2) Experimental Design: Blood agar (for the 3 anaerobic bacteria, 1 facultative bacterium and 1 aerobic yeast; Fisher Scientific) plates were individually swabbed with fresh 24 h broth cultures of C. albicans, P. gingivalis, P. intermedia, F. nucleatum and S. mutans to provide a confluent lawn of microbial growth. […] Assays were conducted in duplicate and undiluted and 1:5 and 1:10 dilutions of the solutions and sterile saline (negative control) were used. The plates were incubated agar-side up at 37° C. in a GasPak anaerobic jar or in 5% CO2 for 72 h. Plates were examined at 72 h for zones of inhibition of growth of the microbes. The diameter of each zone was measured in mm. The zones of inhibition of each dilution sample were compared to the zones of control saline without antimicrobial components. If the zones of the solutions were the same size (or smaller) than the inhibition zones from the control saline than there was judged no inhibition of antimicrobial activity by the antimicrobial solutions. Conversely, if the zones of the solutions were larger than the inhibition zones from the control saline than there was judged significant antimicrobial activity by the solutions. It was anticipated that there will be significant inhibition of microbial growth by at least some of the antimicrobial wheat grass products. […]

P. intermedia [4] = assay: as above; assay type: cell-based, Prevotella intermedia; settings: control, 3 ul of 20%; after 3 days of incubation
Protocol: Experimental Design: Blood agar (for the 3 anaerobic bacteria, 1 facultative bacterium and 1 aerobic yeast; Fisher Scientific) plates were individually swabbed with fresh 24 h broth cultures of C. albicans, P. gingivalis, P. intermedia, F. nucleatum and S. mutans to provide a confluent lawn of microbial growth. Five minutes after swabbing the plates (to allow the inoculum to absorb into the agar), the test and control specimens ([…] adhere, in the case of the undiluted sera) into the agar. Assays were conducted in duplicate and undiluted and 1:5 and 1:10 dilutions of the solutions and sterile saline (negative control) were used. The plates were incubated agar-side up at 37° C. in a GasPak anaerobic jar or in 5% CO2 for 72 h. Plates were examined at 72 h for zones of inhibition of growth of the microbes. The diameter of each zone was measured in mm. The zones of inhibition of each dilution sample were compared to the zones of control saline without antimicrobial components. If the zones of the solutions were the same size (or smaller) than the inhibition zones from the control saline than there was judged no inhibition of antimicrobial activity by the antimicrobial solutions. Conversely, if the zones of the solutions were larger than the inhibition zones from the control saline than there was judged significant antimicrobial activity by the solutions. […]

C. albicans = assay: zone of inhibition on blood agar, drop technique and line method (Example 3); assay type: cell-based, Candida albicans; settings: control spot, dilution not given; after 5 days of incubation
Protocol: as §1

P. gingivalis [5] = assay: as above; assay type: cell-based, Porphyromonas gingivalis; settings: control spot, dilution not given; after 5 days of incubation
Protocol: as §1

P. intermedia [6] = assay: as above; assay type: cell-based, Prevotella intermedia; settings: control spot, dilution not given; after 5 days of incubation
Protocol: as §1

C. rectus = assay: as above; assay type: cell-based, Campylobacter rectus; settings: control spot, dilution not given; after 5 days of incubation
Protocol: as §1, with “The” for “The diameter of each zone was measured in mm. The”

S. mutans [7] = assay: as above; assay type: cell-based, Streptococcus mutans; settings: control spot, dilution not given; after 5 days of incubation
Protocol: as §1

S. mutans [8] = assay: zone of inhibition on blood agar, drop technique and line method (Example 2); assay type: cell-based, Streptococcus mutans; settings: control, 3 ul of 20%; after 3 days of incubation
Protocol: as §2

[9] = tested on: C. rectus, Aggregatibacter actinomycetemcomitans (A.a), C. albicans, P. gingivalis, P. intermedia, F. nucleatum and S. mutans; assay: in vitro antimicrobial activity, summary over the seven microbes (Example 3); assay type: cell-based; settings: overall summary of Example 3
Protocol: Experimental Design: Blood agar (for the 3 anaerobic bacteria, 3 facultative bacteria and 1 aerobic yeast; Fisher Scientific) plates were individually swabbed with fresh 24 h broth cultures of C. rectus, Aggregatibacter actinomycetemcomitans (A.a), C. albicans, P. gingivalis, P. intermedia, F. nucleatum and S. mutans to provide a confluent lawn of microbial growth. Five minutes after swabbing the plates (to allow the inoculum to absorb into the agar), the test and control specimens (see below) were aseptically pipetted (5 ul) onto designated places on the plates and allowed to adsorb (or adhere, in the case of the undiluted sera) into the agar. Assays were conducted in duplicate and undiluted and 1:5 and 1:10 dilutions of the solutions and sterile saline (negative control) and chlorhexidine (CHX) were used. The plates were incubated agar-side up at 37° C. in a GasPak anaerobic jar or in 5% CO2 for 72 h. Plates were examined at 72 h for zones of inhibition of growth of the microbes. The diameter of each zone was measured in mm. The zones of inhibition of each dilution sample were compared to the zones of control saline without antimicrobial components. If the zones of the solutions were the same size (or smaller) than the inhibition zones from the control saline than there was judged no inhibition of antimicrobial activity by the antimicrobial solutions. […]

P. gingivalis [10] = assay: zone of inhibition on blood agar, drop technique and line method (Example 2); assay type: cell-based, Porphyromonas gingivalis; settings: control, 3 ul of 20%; after 3 days of incubation
Protocol: Experimental Design: Blood agar (for the 3 anaerobic bacteria, 1 facultative bacterium and 1 aerobic yeast; Fisher Scientific) plates were individually swabbed with fresh 24 h broth cultures of C. albicans, P. gingivalis, P. intermedia, F. nucleatum and S. mutans to provide a confluent lawn of microbial growth. Five minutes after swabbing the plates (to allow the inoculum to absorb into the agar), the test and control specimens ([…]) onto designated places on the plates and allowed to adsorb (or adhere, in the case of the undiluted sera) into the agar. Assays were conducted in duplicate and undiluted and 1:5 and 1:10 dilutions of the solutions and sterile saline (negative control) were used. The plates were incubated agar-side up at 37° C. in a GasPak anaerobic jar or in 5% CO2 for 72 h. Plates were examined at 72 h for zones of inhibition of growth of the microbes. The diameter of each zone was measured in mm. The zones of inhibition of each dilution sample were compared to the zones of control saline without antimicrobial components. If the zones of the solutions were the same size (or smaller) than the inhibition zones from the control saline than there was judged no inhibition of antimicrobial activity by the antimicrobial solutions. […]

Structure (SMILES): [H]/N=C(\N/C(=N/[H])NCCCCCCNC(=N)NC(=N)Nc1ccc(Cl)cc1)Nc1ccc(Cl)cc1 [Chlorhexidine, chlorhexidine]
- circumference of zone of inhibition (F. nucleatum [1]): 15 mm
- circumference of zone of inhibition [2]: 11 mm
- zone of inhibition (F. nucleatum [3]): 40 mm
- zone of inhibition (P. intermedia [4]): 24 mm
- circumference of zone of inhibition (C. albicans): 20 mm
- circumference of zone of inhibition (P. gingivalis [5]): 14 mm
- diameter of zone of inhibition (P. intermedia [6]): 20 mm
- circumference of zone of inhibition (C. rectus): 16 mm
- diameter of zone of inhibition (S. mutans [7]): 16 mm
- zone of inhibition (S. mutans [8]): 19 mm
- inhibition of growth of the seven species, in words [9]: inhibited the microbial growth of each species
- zone of inhibition (P. gingivalis [10]): 25 mm
